# Assay results reported in patent US9428519B2, “Acylated derivative of homoharringtonine, preparation method therefor, and application thereof” (HANGZHOU BENSHENG PHARMACEUTICAL CO., LTD., priority 2011, dated 2016).
# What was measured:
# [1] = tested on: Hep-2 (laryngeal carcinoma); assay: MTT growth inhibition of human solid tumor cells, 72 h; type: cell-based; details: Homo sapiens, HEp-2
# Description: (§1) Human solid tumor cell lines: Hep-2 (laryngeal carcinoma), A549 (human lung cancer), CaES-17 (esophageal cancer cell), PC-3 (prostate cancer), CNE (nasopharyngeal carcinoma cell), and SK-OV-3 (ovarian cancer cell), all of which are purchased from China Center For Type Culture Collection; RKO (human colon adenocarcinoma cell), MGC 803 (human gastric cancer cell), MG63 (osteosarcoma) and U87 MG (malignant glioma cell), all of which are purchased from Fuxiang Bio-tech Co. Ltd., Shanghai, China; PANC-1 (pancreatic cancer), Huh7 (human liver cancer cell), Becap37 (human breast cancer cell), and Hela (human cervical cancer cell), all of which are donated by Cancer Research Institute of Zhejiang University, China.
# (§2) Obtaining 4000 well-growing human solid tumor cells and inoculating them into wells of a 96-well cell culture plate. The culture medium is DMEM High Glucose cell culture medium containing 10% fetal bovine serum. The plate is placed in a carbon dioxide cell incubator (5% CO2) at 37° C. and incubated for 24 hours. After adding the homoharringtonine derivatives of different concentration and mixing uniformly, the plate is placed in a carbon dioxide cell incubator (5% CO2) at 37° C. and incubated for 72 hours. Then the viable cell concentration is determined by the MTT method and the cell viability (%) after drug treatment is calculated. In this experiment, the cell viability of control group (not treated with any compound) is set as 100%.
# [2] = tested on: U87 MG (malignant glioma cell); assay: as above; type: cell-based; details: Homo sapiens, U-87 MG
# Description: as §1, §2
# [3] = tested on: RKO (human colon adenocarcinoma cell); assay: as above; type: cell-based; details: Homo sapiens, MTT
# Description: as §1, §2
# A549 (human lung cancer) = assay: as above; type: cell-based; details: Homo sapiens, A549
# Description: as §1, §2
# [4] = tested on: CaES-17 (esophageal cancer cell); assay: as above; type: cell-based; details: Homo sapiens, CaEs17
# Description: as §1, §2
# PC-3 (prostate cancer) = assay: as above; type: cell-based; details: Homo sapiens, MTT
# Description: as §1, §2
# [5] = tested on: CNE (nasopharyngeal carcinoma cell); assay: as above; type: cell-based; details: Homo sapiens, MTT
# Description: as §1, §2
# MG63 (osteosarcoma) = assay: as above; type: cell-based; details: Homo sapiens, MG-63, MTT
# Description: as §1, §2
# [6] = tested on: Becap37 (human breast cancer cell); assay: as above; type: cell-based; details: Homo sapiens
# Description: as §1, §2
# [7] = tested on: PANC-1 (pancreatic cancer); assay: as above; type: cell-based; details: Homo sapiens, PANC-1, MTT
# Description: as §1, §2
# [8] = tested on: SK-OV-3 (ovarian cancer cell); assay: as above; type: cell-based; details: Homo sapiens, SK-OV-3, MTT
# Description: as §1, §2
# [9] = tested on: Huh7 (human liver cancer cell); assay: as above; type: cell-based; details: Homo sapiens, Huh-7
# Description: as §1, §2
# [10] = tested on: MGC 803 (human gastric cancer cell); assay: as above; type: cell-based; details: Homo sapiens, MGC-803
# Description: as §1, §2
# [11] = tested on: Hela (human cervical cancer cell); assay: as above; type: cell-based; details: Homo sapiens, HeLa, MTT
# Description: as §1, §2
# [12] = tested on: RPMI8226 (multiple myeloma); assay: MTT growth inhibition of multiple myeloma cells, 72 h; type: cell-based, human; details: Homo sapiens, RPMI-8226, MTT
# Description: Multiple myeloma and lymphoma cell lines: RPMI8226 (multiple myeloma), purchased from Fuxiang Bio-tech Co. Ltd., Shanghai, China.
# (§3) Obtaining 6000 well-growing leukemia cells and inoculating them into wells of a 96-well cell culture plate. The culture medium is the 1640 cell culture medium containing 10% fetal bovine serum. After adding the homoharringtonine derivatives of different concentrations and mixing uniformly, placing the plate in a carbon dioxide cell incubator (5% CO2) at 37° C. and incubated for 72 hours. Then the viable cell concentration is determined by the MTT method. In this experiment, the cell viability in control group (not treated with any compound) is set as 100%. On such basis, the cell viability (%) after treatment and the 50% inhibiting concentration of the compound for the leukemia cell growth at 72 hours (IC50 value of 72 hours) are calculated.
# [13] = tested on: H9 (acute lymphoblastic leukemia, ALL); assay: MTT growth inhibition of leukemia cells, 72 h; type: cell-based, human; details: Homo sapiens, MTT
# Description: (§4) Leukemia cell lines: leukemia cell lines: K562/adr (drug-resistant, chronic myeloid leukemia, CML), NB4 (acute promyelocytic leukemia, AML), Kasumi-1 (acute myeloid leukemia M2 type, AML-M2), Jurkat (acute lymphoblastic leukemia, ALL), all of which are donated by Cancer Research Institute of Zhejiang University, China; and H9 (acute lymphoblastic leukemia, ALL), which is purchased from China Center for Type Culture Collection (CCTCC).
# (§5) Reagents: The standard sample of homoharringtonine (HHT) is purchased from Taihua Natural Plant Pharmaceutical Co., Ltd., Shaanxi, China, the homoharringtonine derivatives of the present invention.
# as §3
# [14] = tested on: NB4 (acute promyelocytic leukemia, AML); assay: MTT growth inhibition of leukemia cells, 72 h; type: cell-based, human; details: Homo sapiens, MTT
# Description: as §4, §5, §3
# [15] = tested on: Kasumi-1 (acute myeloid leukemia M2 type, AML-M2); assay: MTT growth inhibition of leukemia cells, 72 h; type: cell-based, human; details: for IC50 / IC90: Homo sapiens, Kasumi 1, MTT
# Description: as §4, §5, §3
# [16] = tested on: Jurkat (acute lymphoblastic leukemia, ALL); assay: MTT growth inhibition of leukemia cells, 72 h; type: cell-based, human; details: Homo sapiens, Jurkat
# Description: as §4, §5, §3
# [17] = tested on: K562/adr (drug-resistant, chronic myeloid leukemia, CML); assay: MTT growth inhibition of leukemia cells, 72 h; type: cell-based, human; details: Homo sapiens, K562/Adr, MTT
# Description: as §4, §5, §3
structure (smiles),measurement,setting,value
COC(=O)C[C@](O)(CCCC(C)(C)OC(=O)C1CC1)C(=O)O[C@@H]1C(OC)=C[C@]23CCCN2CCc2cc4c(cc2[C@H]13)OCO4 [BS-HH-062],IC50,[1],0.015 mg/L
same,IC90,[1],> 16 mg/L
same,IC50,[2],0.02 mg/L
same,IC90,[2],0.1 mg/L
same,IC50,[3],0.005 mg/L
same,IC90,[3],0.025 mg/L
same,IC50,A549 (human lung cancer),0.04 mg/L
same,IC90,A549 (human lung cancer),> 16 mg/L
same,IC50,[4],0.058 mg/L
same,IC90,[4],16 mg/L
same,IC50,PC-3 (prostate cancer),0.11 mg/L
same,IC90,PC-3 (prostate cancer),> 16 mg/L
same,IC50,[5],0.028 mg/L
same,IC90,[5],> 16 mg/L
same,IC50,MG63 (osteosarcoma),0.012 mg/L
same,IC90,MG63 (osteosarcoma),0.77 mg/L
same,IC50,[6],0.014 mg/L
same,IC90,[6],15.6 mg/L
same,IC50,[7],0.044 mg/L
same,IC90,[7],> 16 mg/L
same,IC50,[8],0.12 mg/L
same,IC90,[8],> 16 mg/L
same,IC50,[9],0.004 mg/L
same,IC90,[9],0.049 mg/L
same,IC50,[10],0.015 mg/L
same,IC90,[10],0.07 mg/L
same,IC50,[11],0.026 mg/L
same,IC90,[11],16 mg/L
same,IC50,[12],0.007 mg/L
same,IC90,[12],0.029 mg/L
same,IC50,[13],0.008 mg/L
same,IC90,[13],0.02 mg/L
same,IC50,[14],0.004 mg/L
same,IC90,[14],0.007 mg/L
same,IC50,[15],0.002 mg/L
same,IC90,[15],0.005 mg/L
same,IC50,[16],0.012 mg/L
same,IC90,[16],≥ 16 mg/L
same,IC50,[17],0.06 mg/L
same,IC90,[17],0.75 mg/L
COC(=O)C[C@](O)(CCCC(C)(C)OC(=O)c1cccnc1Cl)C(=O)O[C@@H]1C(OC)=C[C@]23CCCN2CCc2cc4c(cc2[C@H]13)OCO4 [BS-HH-066],IC50,[1],0.025 mg/L
same,IC90,[1],> 16 mg/L
same,IC50,[2],0.007 mg/L
same,IC90,[2],0.048 mg/L
same,IC50,[3],0.003 mg/L
same,IC90,[3],0.023 mg/L
same,IC50,A549 (human lung cancer),0.03 mg/L
same,IC90,A549 (human lung cancer),> 16 mg/L
same,IC50,[4],0.049 mg/L
same,IC90,[4],16 mg/L
same,IC50,PC-3 (prostate cancer),0.1 mg/L
same,IC90,PC-3 (prostate cancer),> 16 mg/L
same,IC50,[5],0.03 mg/L
same,IC90,[5],> 16 mg/L
same,IC50,MG63 (osteosarcoma),0.0032 mg/L
same,IC90,MG63 (osteosarcoma),0.2 mg/L
same,IC50,[6],0.02 mg/L
same,IC90,[6],5.63 mg/L
same,IC50,[7],0.026 mg/L
same,IC90,[7],> 16 mg/L
same,IC50,[8],0.051 mg/L
same,IC90,[8],> 16 mg/L
same,IC50,[9],0.0016 mg/L
same,IC90,[9],0.023 mg/L
same,IC50,[10],0.005 mg/L
same,IC90,[10],0.052 mg/L
same,IC50,[11],0.021 mg/L
same,IC90,[11],16 mg/L
same,IC50,[12],0.006 mg/L
same,IC90,[12],0.033 mg/L
same,IC50,[13],0.003 mg/L
same,IC90,[13],0.01 mg/L
same,IC50,[14],0.002 mg/L
same,IC90,[14],0.004 mg/L
same,IC50,[15],0.0007 mg/L
same,IC90,[15],0.002 mg/L
same,improvement of anti-Kasumi-1 activity compared with homoharringtonine,[15]; vs HHT,more than 7 fold
same,IC50,[16],0.005 mg/L
same,IC90,[16],≥ 16 mg/L
same,IC50,[17],0.03 mg/L
same,IC90,[17],3.18 mg/L
